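In this assay, cells in 96-well plates receive the compound at five concentrations for 48 hours. Endpoints are linearly interpolated between the surrounding concentrations. GI50 = concentration required for 50% inhibition of growth.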 The source made the active and inactive calls. Rule as the data show it: active = GI50 up to about 1.1 µM and inactive = higher.
Columns and labels:
Experiment in all cases: growth of human tumour cells (NCI), 48 h
[1] = system: CCRF-CEM
[2] = system: COLO 205
[3] = system: HCC 2998
[4] = system: HOP-62
[5] = system: M14
[6] = system: MDA-MB-231
[7] = system: MOLT-4
[8] = system: NCI-H460
[9] = system: OVCAR-3
[10] = system: OVCAR-4
[11] = system: OVCAR-5
[12] = system: SK-MEL-28
[13] = system: SW-620
[14] = system: TK-10
[15] = system: UACC-62
[16] = system: HT-29
[17] = system: IGROV-1
[18] = system: OVCAR-8
[19] = system: SNB-75
[20] = system: SR

Measured: GI50

NC(=O)NC(=O)c1cnccn1
inactive: [1] > 100 µM | [2] > 10 µM | [3] > 100 µM | [4] > 100 µM | [5] > 100 µM | [6] > 100 µM | [7] > 100 µM | [8] > 100 µM | [9] > 100 µM | [10] > 100 µM | [11] > 100 µM | [12] > 100 µM | [13] > 100 µM | [14] 12.1 µM | [15] > 100 µM

FC(F)(F)c1nc(Br)[nH]c1C(F)(F)F
inactive: [1] 66.5 µM | [2] > 100 µM | [3] 49.9 µM | [4] 32 µM | [16] > 100 µM | [17] > 100 µM | [5] > 100 µM | [7] > 100 µM | [8] > 100 µM | [9] 60.4 µM | [10] > 100 µM | [11] > 100 µM | [18] > 100 µM | [12] > 100 µM | [19] > 100 µM | [20] 35.6 µM | [13] > 100 µM | [14] > 100 µM | [15] 37.6 µM

C=C1C(=O)OC2/C=C(\C)C(O)/C=C\C(C)(O)CC(OC(=O)/C(C)=C/C)C12 (configuration not stated)
inactive: [1] > 32.5 µM | [2] 15.3 µM | [3] > 100 µM | [4] > 100 µM | [16] 33.1 µM | [17] > 100 µM | [5] 17.3 µM | [7] 4.29 µM | [8] > 61 µM | [9] 9.93 µM | [10] 44.6 µM | [11] > 100 µM | [18] 22.1 µM | [12] 18.3 µM | [19] > 100 µM | [20] 11.7 µM | [13] 17.3 µM | [14] > 48.4 µM | [15] 17.1 µM

O=C1c2ccc3c4ccccc4n(Cc4ccccc4)c3c2C(=O)N1c1ccccc1
inactive: [1] 1.88 µM | [2] 3.52 µM | [3] 18.3 µM | [4] > 36.9 µM | [16] 16.4 µM | [17] 17.8 µM | [5] 14.8 µM | [7] 3.05 µM | [8] 58.7 µM | [9] 5.5 µM | [10] 8.3 µM | [11] 17.6 µM | [18] 15.6 µM | [12] 17 µM | [19] 13.8 µM | [20] 5.61 µM | [13] 5.98 µM | [14] 15.6 µM | [15] 17.3 µM

CCOC(=O)C1=C(NC(C)(C)C)OC/C1=N\NC(=O)Cc1ccccc1
inactive: [1] > 100 µM | [2] > 100 µM | [3] > 100 µM | [4] > 100 µM | [16] > 100 µM | [17] > 100 µM | [5] > 100 µM | [7] > 100 µM | [8] > 100 µM | [9] > 100 µM | [10] > 100 µM | [11] > 100 µM | [18] > 100 µM | [12] > 100 µM | [19] 27.9 µM | [20] > 100 µM | [13] > 100 µM | [14] > 100 µM | [15] > 100 µM

CCOC(=O)CC(NCc1ccc(/N=C/c2nc3ccc(C(F)(F)F)cc3nc2-c2ccccc2)cc1)C(=O)OCC (configuration not stated)
inactive: [1] > 100 µM | [2] > 100 µM | [3] 27 µM | [4] 29 µM | [16] > 100 µM | [17] > 63.1 µM | [5] > 80.7 µM | [7] > 100 µM | [8] > 100 µM | [9] > 100 µM | [10] > 100 µM | [11] > 100 µM | [18] > 100 µM | [12] > 100 µM | [19] 12.1 µM | [20] > 100 µM | [13] > 100 µM | [14] 23.3 µM | [15] 13.7 µM

CCOC(=O)Cn1c(C)nc2nn(Cc3ccccc3)cc2c1=O
inactive: [1] > 100 µM | [3] > 100 µM | [4] > 100 µM | [16] > 100 µM | [17] > 100 µM | [5] > 100 µM | [6] > 100 µM | [7] > 100 µM | [8] > 100 µM | [9] > 100 µM | [11] > 100 µM | [18] > 100 µM | [12] > 100 µM | [13] > 100 µM | [14] > 100 µM | [15] > 100 µM

COC(=O)C(C(=O)C(=O)Nc1cccc([N+](=O)[O-])c1)c1nc2ccc([N+](=O)[O-])cc2nc1O (configuration not stated)
inactive: [1] > 100 µM | [2] > 100 µM | [3] > 100 µM | [4] > 100 µM | [16] > 100 µM | [17] > 100 µM | [5] > 100 µM | [7] > 100 µM | [8] > 100 µM | [9] > 100 µM | [10] > 100 µM | [11] > 100 µM | [18] > 100 µM | [12] > 100 µM | [19] 70.6 µM | [20] > 100 µM | [13] > 100 µM | [14] > 100 µM | [15] > 100 µM

O=C(Nc1ccc(C(F)(F)F)cc1[N+](=O)[O-])C(=O)C1NC(=S)NC1=O (configuration not stated)
inactive: [1] > 100 µM | [2] 13.5 µM | [3] > 100 µM | [4] > 100 µM | [16] > 100 µM | [17] > 100 µM | [5] > 100 µM | [7] > 100 µM | [8] > 100 µM | [9] > 100 µM | [10] > 100 µM | [11] > 100 µM | [18] > 100 µM | [12] > 100 µM | [19] 26.6 µM | [20] > 100 µM | [13] > 100 µM | [14] > 100 µM | [15] > 100 µM

C/C(COc1ccccc1)=N\NC(N)=S
inactive: [1] 61.7 µM | [2] > 100 µM | [3] > 100 µM | [4] > 100 µM | [16] 61.9 µM | [17] > 100 µM | [5] > 100 µM | [7] > 100 µM | [8] > 10 µM | [9] > 100 µM | [10] > 100 µM | [11] > 100 µM | [18] > 100 µM | [12] > 100 µM | [19] > 100 µM | [20] > 100 µM | [13] > 100 µM | [14] > 100 µM | [15] > 100 µM

C[N+](C)(C)CC(=O)N/N=C(\C(=O)NC1=C(Cl)C(=O)c2ccccc2C1=O)C(C#N)c1csc(-c2ccc([N+](=O)[O-])cc2)n1 (configuration not stated)
inactive: [1] > 100 µM | [2] > 100 µM | [3] > 100 µM | [4] > 100 µM | [16] > 100 µM | [17] > 100 µM | [5] > 100 µM | [7] > 100 µM | [8] > 100 µM | [9] > 100 µM | [10] > 100 µM | [11] > 100 µM | [18] > 100 µM | [12] > 100 µM | [19] > 100 µM | [20] 80.5 µM | [13] > 100 µM | [14] > 100 µM | [15] > 100 µM

Source: ChEMBL document CHEMBL1201862, “PubChem BioAssay data set” (2004)
